Values quoted from earlier work, collected in patent US20090023643A1, “Methods For Treating Acute Myocardial Infarction By Administering Calcitonin Gene Related Peptide And Compositions Containing The Same” (VasoGenix Pharmaceuticals, Inc., priority 2004, published 2009).

Experiments:
IL-12 = settings: Torii et al 1997
[1] = test system: IGF-1 (insulin-like growth factor-1); settings: R. Zfoncea et al 1997
IL-1β = settings: Torii et al 1997
IL-7 = settings: Fernandez et al 2000
B7-2 = settings: Ashana et al 1995; Torii et al 1997
IL-16 = settings: Dunzendorfer et al 2002-2003
TNF-α = settings: lipopolysaccharide induced, macrophages; Feng et al 1997
IL-10 = settings: Torii et al 1997

CGRP
CGRP activity: cytokines inhibited or suppressed, IL-12; benefits (IL-12): Suppresses Natural Killer Cell Stimulating factor (NKSF)
expression of IGF-1 [1]: increases expression of IGF-1
CGRP activity: cytokines inhibited or suppressed, IL-1β; benefits (IL-1β): Inhibits proliferation of T-cells
CGRP activity: cytokines inhibited or suppressed, IL-7; benefits (IL-7): Inhibits pre B-cell development and T-cell development
CGRP activity: cytokines inhibited or suppressed, B7-2; benefits (B7-2): Inhibits Granulocyte-Macrophage Colony
CGRP activity: cytokines inhibited or suppressed, IL-16; benefits (IL-16): Inhibits macrophage chemotaxis
CGRP activity: cytokines inhibited or suppressed, TNF-α; benefits (TNF-α): Inhibits lipopolysaccharide induced TNF-α in macrophages
CGRP activity: induced anti-inflammatory cytokines, IL-10; benefits (IL-10): Inhibits monocyte inflammation
